This is an account of results in US20230159445A1, “STAT INHIBITORY COMPOUNDS AND COMPOSITIONS” (JANPIX LIMITED, priority 2020, published 2023).

In data set [1] the test system is normal human fibroblast (NHF) cells. In words: NHF Cell Cytotoxicity Assay (CellTiter-Blue, 72 h), off-target effects. The class given is cell-based. The conditions noted are these: Homo sapiens, Fibroblast; pooled NHF cells. In a few lines:
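Normal human fibroblasts (1×10^4/well, 10% FBS medium) were treated after 24 h with inhibitor at 0.097656-50 μM for 72 h at 37° C. Viability was read by CellTiter-Blue fluorescence (560/590 nm), normalized to DMSO control, and IC50 obtained from a variable-slope log(inhibitor)-response fit of four replicates.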
For orientation: Alamar Blue is a resazurin reagent that responds to reducing activity.

Data set [2] deals with MV4-11 cells. Briefly: MV4-11 Cell Cytotoxicity Assay (CellTiter-Blue, 72 h). To be noted: Homo sapiens, MV4-11; MV-4-11 cells. The class given is cell-based, human. In outline:
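Viability read-out: CellTiter-Blue, 1 h, fluorescence 560/590 nm. Preceded by 72 h exposure (37° C, 5% CO2) to twofold dilution series from 50 μM, triplicate, 0.5% DMSO vehicle, applied 24 h after plating.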

For data set [3], the system named is glutathione (GSH). Briefly: Reactivity Profiling with Glutathione (GSH), half-life by HPLC. The conditions noted are these: 5 mM glutathione (GSH) in IMDM with 10% FBS.

As to `COc1cc(C(=O)O)ccc1N(Cc1cc(C2CC2)cc(C(C)(C)C)c1)C(=O)CN(Cc1ccccc1F)S(=O)(=O)c1c(F)c(F)c(F)c(F)c1F` [Compound 1061, 4-(N-(3-(tert-butyl)-5-cyclopropylbenzyl)-2-(N-(2-fluorobenzyl)-(2,3,4,5,6-pentafluoro-phenyl)sulfonamido)acetamido)-3-methoxybenzoic acid], the IC50 is 10000 to 20000 nM in data set [1] and 0.01 to 316 nM in data set [2]. In data set [3], this compound showed a half-life at 25 μM of 2.37 to 4.12 h.
As for `O=C(O)c1ccc(N(Cc2cc(C3CC3)cc(C3CC3)c2)C(=O)CN(Cc2ccc(F)cc2Cl)S(=O)(=O)c2c(F)c(F)c(F)c(F)c2F)c(OC2CCOC2)c1` (stereo not drawn) [Compound 1220, 4-(2-(N-(2-chloro-4-fluorobenzyl)-(2,3,4,5,6-pentafluorophenyl)sulfon-amido)-N-(3,5-dicyclopropylbenzyl)acetamido)-3-((tetrahydrofuran-3-yl)oxy)benzoic acid], the IC50 fell in the range of 1 to 10000 nM in data set [1] and 0.01 to 316 nM in data set [2]. For the same compound, the half-life at 25 μM in data set [3] lay in the range of 2.37 to 4.12 h.
With `O=C(O)c1ccc(N(Cc2cc(C3CC3)cc(N3CCCC3)c2)C(=O)CN(Cc2ccc(F)cc2Cl)S(=O)(=O)c2c(F)c(F)c(F)c(F)c2F)c(C2CC2)c1` [Compound 1200, 4-(2-(N-(2-chloro-4-fluorobenzyl)-(2,3,4,5,6-pentafluorophenyl)sulfon-amido)-N-(3-cyclopropyl-5-(pyrrolidin-1-yl)benzyl)acetamido)-3-cyclopropylbenzoic acid], the values for the IC50 in data set [1] and in data set [2] were 1 to 10000 nM and 0.01 to 316 nM, respectively. For the same compound, the half-life at 25 μM in data set [3] lay in the range of 9.23 to 1670 h.
For `CN(C)c1cc(C(=O)O)ccc1N(Cc1cc(C2CC2)cc(C2CC2)c1)C(=O)CN(Cc1ccc(F)cc1Cl)S(=O)(=O)c1c(F)c(F)c(F)c(F)c1F` [Compound 1211, 4-(2-(N-(2-chloro-4-fluorobenzyl)-(2,3,4,5,6-pentafluorophenyl)sulfon-amido)-N-(3,5-dicyclopropylbenzyl)acetamido)-3-(dimethylamino) benzoic acid] the same measures were 10000 to 20000 nM, 316 to 1000 nM and 4.12 to 9.23 h.
`O=C(O)c1ccc(N(Cc2cc(C3CC3)cc(C3CC3)c2)C(=O)CN(Cc2cnccc2C(F)(F)F)S(=O)(=O)c2c(F)c(F)c(F)c(F)c2F)c(C2CC2)c1` [Compound 1194, 3-cyclopropyl-4-(N-(3,5-dicyclopropylbenzyl)-2-(N-((4-(trifluoromethyl)pyridin-3-yl)methyl)-(2,3,4,5,6-pentafluoro-phenyl)sulfonamido)acetamido)benzoic acid]: the IC50 in data set [1] is 1 to 10000 nM; in data set [2], 0.01 to 316 nM. Besides, the half-life at 25 μM in data set [3] lay in the range of 0.00167 to 2.37 h.
`COc1cc(C(=O)O)ccc1N(Cc1cc(C2CC2)cc(C(C)(C)C)c1)C(=O)CN(Cc1c(F)c(F)c(F)c(F)c1F)S(=O)(=O)c1c(F)c(F)c(F)c(F)c1F` [Compound 1066, 4-(N-(3-(tert-butyl)-5-cyclopropylbenzyl)-2-(N-((perfluorophenyl)methyl)-(2,3,4,5,6-pentafluoro-phenyl)sulfonamido)acetamido)-3-methoxybenzoic acid]: the values for the IC50 in data set [1] and in data set [2] were 1 to 10000 nM and 0.01 to 316 nM, respectively. The same compound gave a half-life at 25 μM in data set [3] of 4.12 to 9.23 h.
On to `O=C(O)c1ccc(N(Cc2cc(C3CC3)cc(C3CC3)c2)C(=O)CN(Cc2ccc(F)cc2Cl)S(=O)(=O)c2c(F)c(F)c(F)c(F)c2F)c(C2CC2)c1` [Compound 1197, 4-(2-(N-(2-chloro-4-fluorobenzyl)-(2,3,4,5,6-pentafluorophenyl)sulfon-amido)-N-(3,5-dicyclopropylbenzyl)acetamido)-3-cyclopropylbenzoic acid], for which the results for the half-maximal inhibitory concentration (IC50) in data set [1] and in data set [2] were 10000 to 20000 nM and 0.01 to 316 nM, respectively. Further, the half-life at 25 μM in data set [3] lay in the range of 4.12 to 9.23 h.
In the case of `O=C(O)c1ccc(N(Cc2cc(C3CC3)cc(C(F)(F)F)c2)C(=O)CN(Cc2ccc(F)cc2Cl)S(=O)(=O)c2c(F)c(F)c(F)c(F)c2F)c(OC2CC2)c1` [Compound 1222, 4-(2-(N-(2-chloro-4-fluorobenzyl)-(2,3,4,5,6-pentafluorophenyl)sulfon-amido)-N-(3-cyclopropyl-5-(trifluoromethyl)benzyl)acetamido)-3-cyclopropoxybenzoic acid], the IC50 lay in the range of 10000 to 20000 nM in data set [1] and 0.01 to 316 nM in data set [2]. Moreover, the half-life at 25 μM in data set [3] fell in the range of 4.12 to 9.23 h.
For `CCOc1cc(C(=O)O)ccc1N(Cc1cc(C2CC2)cc(C2CC2)c1)C(=O)CN(Cc1ccc(F)cc1Cl)S(=O)(=O)c1c(F)c(F)c(F)c(F)c1F` [Compound 1252, 4-(2-(N-(2-chloro-4-fluorobenzyl)-(2,3,4,5,6-pentafluorophenyl)sulfon-amido)-N-(3,5-dicyclopropylbenzyl)acetamido)-3-ethoxybenzoic acid] the same measures were 1 to 10000 nM, 0.01 to 316 nM and 2.37 to 4.12 h.
In the case of `O=C(O)c1ccc(N(Cc2cc(C3CC3)cc(C(F)(F)F)c2)C(=O)CN(Cc2ccccc2C(F)(F)F)S(=O)(=O)c2c(F)c(F)c(F)c(F)c2F)c(OC2CC2)c1` [Compound 1221, 3-cyclopropoxy-4-(N-(3-cyclopropyl-5-(trifluoromethyl)benzyl)-2-(N-(2-(trifluoromethyl)benzyl)-(2,3,4,5,6-pentafluoro-phenyl)sulfonamido)acetamido)benzoic acid], the IC50 in data set [1] lay within 20000 to 30000 nM; in data set [2] it was 316 to 1000 nM. In data set [3], this compound yielded a half-life at 25 μM of 9.23 to 1670 h.
As to `O=C(O)c1ccc(N(Cc2cc(C3CC3)cc(N3CCCC3)c2)C(=O)CN(Cc2c(F)cc(F)cc2F)S(=O)(=O)c2c(F)c(F)c(F)c(F)c2F)c(C2CC2)c1` [Compound 1199, 3-cyclopropyl-4-(N-(3-cyclopropyl-5-(pyrrolidin-1-yl)benzyl)-2-(N-(2,4,6-trifluorobenzyl)-(2,3,4,5,6-pentafluoro-phenyl)sulfonamido)acetamido)benzoic acid], the IC50 is 1 to 10000 nM in data set [1] and 0.01 to 316 nM in data set [2]. Also, in data set [3], the half-life at 25 μM fell in the range of 9.23 to 1670 h.
With `CC(C)Oc1cc(C(=O)O)ccc1N(Cc1cc(C2CC2)cc(C2CC2)c1)C(=O)CN(Cc1ccccc1C#N)S(=O)(=O)c1c(F)c(F)c(F)c(F)c1F` [Compound 1280, 4-(2-((N-(2-cyanobenzyl)-2,3,4,5,6-pentafluorophenyl)sulfonamido)-N-(3,5-dicyclopropylbenzyl)acetamido)-3-isopropoxybenzoic acid], the values for the IC50 in data set [1] and in data set [2] were 10000 to 20000 nM and 0.01 to 316 nM, respectively. In data set [3], the half-life at 25 μM fell in the range of 2.37 to 4.12 h.
For the compound `CC(C)(C)c1cc(CN(C(=O)CN(Cc2ccccc2F)S(=O)(=O)c2c(F)c(F)c(F)c(F)c2F)c2ccc(C(=O)O)cc2C(F)(F)F)cc(C2CC2)c1` [Compound 1092, 4-(N-(3-(tert-butyl)-5-cyclopropylbenzyl)-2-(N-(2-fluorobenzyl)-(2,3,4,5,6-pentafluoro-phenyl)sulfonamido)acetamido)-3-(trifluoromethyl)benzoic acid], the IC50 is 10000 to 20000 nM in data set [1] and 0.01 to 316 nM in data set [2]. Further, the half-life at 25 μM in data set [3] lay within 4.12 to 9.23 h.
In the case of `COc1cc(C(=O)O)ccc1N(Cc1cc(C2CC2)cc(C(C)(C)C)c1)C(=O)CN(Cc1ccccc1C#N)S(=O)(=O)c1c(F)c(F)c(F)c(F)c1F` [Compound 1075, 4-(N-(3-(tert-butyl)-5-cyclopropylbenzyl)-2-(N-(2-cyanobenzyl)-(2,3,4,5,6-pentafluorophenyl)sulfon-amido)acetamido)-3-methoxybenzoic acid], the IC50 is 10000 to 20000 nM in data set [1] and 0.01 to 316 nM in data set [2]. The half-life at 25 μM in data set [3] was 0.00167 to 2.37 h.
Regarding `O=C(O)c1ccc(N(Cc2cc(C3CC3)cc(C3CC3)c2)C(=O)CN(Cc2ncc(F)cc2Cl)S(=O)(=O)c2c(F)c(F)c(F)c(F)c2F)c(OC2CC2)c1` [Compound 1214, 4-(2-(N-((3-chloro-5-fluoropyridin-2-yl)methyl)-(2,3,4,5,6-pentafluorophenyl)sulfon-amido)-N-(3,5-dicyclopropylbenzyl)acetamido)-3-cyclopropoxybenzoic acid], the IC50 lay within 1 to 10000 nM in data set [1] and 0.01 to 316 nM in data set [2]. Besides, the half-life at 25 μM in data set [3] is 4.12 to 9.23 h.
The corresponding values for `COc1cc(C(=O)O)ccc1N(Cc1cc(C2CC2)cc(C(C)(C)C)c1)C(=O)CN(Cc1c(F)cc(F)cc1F)S(=O)(=O)c1c(F)c(F)c(F)c(F)c1F` [Compound 1081] are 1 to 10000 nM, 0.01 to 316 nM and 4.12 to 9.23 h.
With `O=C(O)c1ccc(N(Cc2cc(C3CC3)cc(C3CC3)c2)C(=O)CN(Cc2c(F)c(F)c(F)c(F)c2F)S(=O)(=O)c2c(F)c(F)c(F)c(F)c2F)c(OC2CC2)c1` [Compound 1183, 3-cyclopropoxy-4-(N-(3,5-dicyclopropylbenzyl)-2-(N-((perfluorophenyl)methyl)-(2,3,4,5,6-pentafluoro-phenyl)sulfonamido)acetamido)benzoic acid], the half-inhibitory concentration (IC50) in data set [1] was in the range of 1 to 10000 nM; in data set [2], 0.01 to 316 nM. The half-life at 25 μM in data set [3] is 9.23 to 1670 h.
Turning to `O=C(O)c1ccc(N(Cc2cc(C3CC3)cc(C3CC3)c2)C(=O)CN(Cc2ccc(F)cc2Cl)S(=O)(=O)c2c(F)c(F)c(F)c(F)c2F)c(OC(F)(F)F)c1` [Compound 1231, 4-(2-(N-(2-chloro-4-fluorobenzyl)-(2,3,4,5,6-pentafluorophenyl)sulfon-amido)-N-(3,5-dicyclopropylbenzyl)acetamido)-3-(trifluoromethoxy) benzoic acid], the IC50 in data set [1] was in the range of 10000 to 20000 nM; in data set [2], 0.01 to 316 nM. The half-life at 25 μM in data set [3] was 4.12 to 9.23 h.

The term IC50 denotes the concentration that inhibits the measured activity by half. High values mean a need for much substance, low ones inhibition by little substance. A word on the half-life: it is the time needed for the level to fall by half in the phase considered.
